Reference: patent publication US8410130B2, “Synthesis of 8H-3A-aza-cyclopenta [A ]indenes and 5,10-dihydropyrrolo[1,2-B]isoquinolines derivatives and their use as antitumor therapeutic agents” (Academia Sinica, priority 2007, dated 2013)

Columns and labels:
[1] = test system: CCRF-CEM human lymphoblastic leukemia cells; experiment: In vitro cytotoxicity, XTT assay, 72-hr incubation; type: cell-based; settings: Homo sapiens, CCRF-CEM
Text: (§1) Human colon carcinoma HCT-116 cells, human prostate adenocarcinoma PC-3 and adenocarcinoma SK-OV-3 cells were obtained from American Type Culture Collection (ATCC, Rockville, Md.). Human mammary carcinoma (MX-1) tumor cells were obtained from MSKCC cell bank. The CCRF-CEM human lymphoblastic leukemia cells and their vinblastine resistant subline (CCRF-CEM/VBL, 680-fold resistance in vitro) were obtained from Dr. William Beck of the University of Illinois, Chicago, and CCRF-CEM/Taxol (330-fold resistance in vitro). Resistant cells CCRF-CEM/taxol were produced by exposing the parent cells to increasing sublethal concentration (IC50-IC90) of paclitaxel for six months.
(§2) In preparation for in vitro cytotoxicity assays, cells were cultured at an initial density 2-5×10^4 cells per milliliter. They were maintained in a 5% CO2-humidified atmosphere at 37° C. in RPMI medium 1640 (GIBCO/BRL) containing penicillin (100 units/mL), streptomycin (100 μg/mL, GIBCO/BRL), and 5% heat-inactivated FBS. For cells grown in suspension (such as CCRF-CEM and its sublines), cytotoxicity was measured, by using XTT microculture method in 96-well microtiter plates (Scudiero D A et al., Cancer Res. 1988, 48, 4827-4833). For solid tumor cells growing in a monolayer (such as MX-1 and HCT-116), cytotoxicity of the drug was determined, in duplicate, in 96-well microtiter plates by using the sulforhodamine B method (Skehan P et al., J. Natl. Cancer Inst 1990, 82, 1107-1112). For both methods, the absorbance of each well was measured with a microplate reader (Power Wave XS, Bio-Tek, Winooski, Vt.) after 72-hr incubation as described previously (Chou T-C et al., Proc. Natl. Acad. Sci. USA 2001, 98, 8113-8118). Dose-effect relationship data from 6 to 7 concentrations of each drug, in duplicate, were analyzed by using a computer program (Chou T-C et al., ComboSyn, Inc., Paramus, N J. 2005) based on the median-effect principle and plot (Chou T-C et al., Adv. Enzyme Regul. 1984, 22, 27-55; Chou T-C, Pharmacol. Rev. 2006, 58, 621-681).
(§3) The IC50 is defined by the concentration required to inhibit tumor cell growth by 50%. […] The growth inhibition of the compounds disclosed herein against human lymphoblastic leukemic cells (CCRF-CEM) and its drug-resistant sublines (resistant to vinblastine and taxol, CCRF-CEM/VBL and CCRF-CEM/taxol, respectively) is also shown in Table 5. […] Thus, the compounds disclosed herein are effective against multiple drug resistant tumors.

CCRF-CEM/VBL = experiment: In vitro cytotoxicity, XTT assay, vinblastine resistant subline; type: cell-based, human; settings: for IC50: Homo sapiens, CCRF-CEM, XTT assay, 72-hr incubation; for fold of cross-resistant, CCRF-CEM/VBL vs IC50 of the parent cell line: numbers in brackets
Text: as §1, §2, §3

CCRF-CEM/Taxol = experiment: In vitro cytotoxicity, XTT assay, taxol resistant subline; type: cell-based, human; settings: for IC50: Homo sapiens, CCRF-CEM, XTT assay, 72-hr incubation; for fold of cross-resistant, CCRF-CEM/Taxol vs IC50 of the parent cell line: numbers in brackets
Text: as §1, §2, §3

[2] = test system: Human colon carcinoma HCT-116 cells; experiment: In vitro cytotoxicity, sulforhodamine B (SRB) assay; type: cell-based; settings: Homo sapiens, HCT-116, 72-hr incubation
Text: as §1, §2, §3

[3] = test system: Human mammary carcinoma (MX-1) tumor cells; experiment: as above; type: cell-based; settings: Homo sapiens, 72-hr incubation
Text: as §1, §2, §3

[4] = test system: human mammary carcinoma MX-1 xenograft; experiment: Therapeutic effect in nude mice bearing MX-1 xenograft; type: in vivo; settings: intravenous injection
Description: FIGS. 2A-B illustrates the therapeutic effect of DA-1090, 1099, 1124, 1012 and 1107 in nude mice bearing human mammary carcinoma MX-1 xenograft (i.v. inj, n=3-4), average tumor size changes (FIG. 2A) and average body weight changes (FIG. 2B).
(§4) Athymic nude mice bearing the nu/nu gene were obtained from NCI, Frederick, Md. and used for all human tumor xenografts. Male nude mice, 6 weeks or older, weighing 20-24 g or more were used. Compounds were administered via the tail vein for i.v. injection or infusion as described previously (Chou T-C et al., Proc. Natl. Acad. Sci. USA 2001, 98, 8113-8118). Various formulations were prepared for injections into the mice for chemotherapeutic studies. As an example, a drug was dissolved in DSMO to make a 25 mg/ml fresh solution, 0.4 ml of this solution was mixed with 0.3 ml of Tween 80, plus 1.3 ml to make 2 ml of 5 mg/ml solution. Bolus injection volume was 0.1-0.2 ml per mouse.
Athymic nude mice bearing the nu/nu gene were used for human breast tumor MX-1 xenograft (FIGS. 2, 2A and 2B). Nude mice were obtained from National Cancer Institute, Frederick, Md. Male mice, 6 weeks old or older, weighing 22 g or more were used for experiments with subcutaneous tumor inoculation as described previously (Chou T-C, Pharmacol. Rev. 2006, 58, 621-681). Drug was administrated via the tail vein by iv injection. Tumor volumes were assessed by measuring length×width×height (or width) by using caliper. An example of vehicle used was 20 μL DMSO in 180 μL saline. All animal studies were conducted in accordance with the guidelines of the U.S. National Institutes of Health Guide for the Care and Use of Animals and the protocol approved by the Institutional Animal Care and Use Committee.

[5] = test system: ovarian adenocarcinoma SK-OV-3 xenograft; experiment: Therapeutic effect in nude mice bearing SK-OV-3 xenograft; type: in vivo; settings: intravenous injection, on day 22
Description: FIGS. 4A-B illustrates the therapeutic effects of DA-1090, 1099, 1107 in nude mice bearing ovarian adenocarcinoma SK-OV-3 xenograft (i.v. inj., n=3), average tumor size changes (FIG. 4A) and average body weight changes (FIG. 4B).
as §4
(§5) The therapeutic effects of N-mustard DA-1099 against human prostate adenocarcinoma PC-3 s.c. xenograft in nude mice is shown in FIGS. 3, 3A and 3B. xenograft (i.v. inj., n=3), average tumor size changes (FIG. 3A) and average body weight changes (FIG. 3B). […] Under optimal therapeutic conditions, intravenous injection, of DA-1090, 1099, and 1107, 20 (QD×4), 50 (QD×3), and 20 (QD×4) mg/kg, respectively, yielded 53%, 78%, and 71% tumor suppression, respectively, on day 22.

[6] = test system: human prostate adenocarcinoma PC-3 xenograft; experiment: Therapeutic effect in nude mice bearing PC-3 xenograft; type: in vivo; settings: 50 mg/kg, QD×4, i.v. inj.
Description: FIGS. 3A-B illustrates the therapeutic effect of DA-1099 in nude mice bearing human prostate adenocarcinoma PC-3 xenograft (i.v. inj., n=3), average tumor size changes (FIG. 3A) and average body weight changes (FIG. 3B).
as §4, §5

[7] = 18 mg/kg, every other two days (Q2D), two times
[8] = 30 mg/kg, every other two days (Q2D), two times

Structure (SMILES)	IC50 [1] [nM]	IC50 (CCRF-CEM/VBL) [nM]	fold of cross-resistant, CCRF-CEM/VBL vs IC50 of the parent cell line (CCRF-CEM/VBL)	IC50 (CCRF-CEM/Taxol) [nM]	fold of cross-resistant, CCRF-CEM/Taxol vs IC50 of the parent cell line (CCRF-CEM/Taxol)	IC50 [2] [nM]	IC50 [3] [nM]	antitumor therapeutic effect (tumor size) [4, 7]	toxicity [4, 7]	tumor suppression ([5]; 20 mg/kg (QD×4)) [%]	antitumor therapeutic effect (tumor size) ([4]; 18 mg/kg, daily (QD) 3 times)	toxicity ([4]; 18 mg/kg, daily (QD) 3 times)	tumor-growth suppression [6]	tumor suppression ([5]; 50 mg/kg (QD×3)) [%]	antitumor therapeutic effect (tumor size) [4, 8]	toxicity [4, 8]
Cc1c(CO)c(CO)c2n1-c1ccccc1C2 [DA-1090, (2-Hydroxymethyl-3-methyl-8H-3a-aza-cyclopenta[a]inden-1-yl)methanol]	76	29.7	[0.39x]^c	66.3	[0.87x]	332	357	tumor total disappearance	low toxicity	53	–	–	–	–	–	–
CCc1c(CO)c(CO)c2n1-c1ccccc1C2 [DA-1099, (3-Ethyl-2-hydroxymethyl-8H-3a-azacyclopenta[a]inden-1-yl)methanol]	356	133	[0.37x]	229	[0.64x]	825	1080	–	–	–	tumor total disappearance	low toxicity	complete tumor-growth suppression	78	–	–
Cc1c(CO)c(CO)c2n1Cc1ccccc1C2 [DA-1107, (2-Hydroxymethyl-3-methyl-5,10-dihydropyrrolo[1,2-b]isoquinolin-1-yl)methanol]	81	93	[1.15x]	98	[1.21x]	281	616	–	–	71	–	–	–	–	tumor total disappearance	low toxicity
